# From US20140127288A1, “LIPOSOME CONTAINING PYRROLOQUINOLINE QUINONE AND SUGAR” (MITSUBISHI GAS CHEMICAL COMPANY, INC., priority 2011, published 2014)
# System: Chinese hamster ovary cells (CHO-DHFR)
# Experiment: Proliferation study (WST assay)
# Format: cell-based
# Conditions: vs cells treated with culture medium alone; one day incubation
# Experimental: Chinese hamster ovary cells (CHO-DHFR; obtained from Dainippon Sumitomo Pharma Co., Ltd.) was cultured in the culture medium, α-MEM+10% fetal calf serum, in an atmosphere of 5% CO2 at 37° C. A 96-well microplate (IWAKI & Co., Ltd.) was used and cells were added to each well at 5000 cells with 100 μl of the culture medium, and the microplate was incubated overnight. After removing the culture medium, a new culture medium containing the liposome composition prepared in Examples 1 to 4 and Comparative Examples 1 to 3 at a predetermined concentration was added to each well. After one day incubation, a test solution in a WST Assay Kit was reacted for 1 hour according to a procedure of the Kit (Dojindo Laboratories), and the absorbance of each well was measured at 450 nm. In WST Assay, the absorbance obtained is proportional to the number of live cells. The liposome compositions prepared in Examples 1 to 4 and Comparative Examples 1 to 3 and […] (for Comparative Example 4) were used as samples, and the samples were diluted by the culture medium and subjected to a test. The concentrations used in the test were 500, 250, 125, 62, 31, 16, 8, 4, 2, 1, 0.5, and 0 μM. In Comparative Example 2, the concentration of the liposome composition was used as the test concentration of the sample. The test was conducted for each sample twice and the average was calculated. […]
smiles,measurement,value
"O=C(O)c1cc(C(=O)O)c2c(n1)C(=O)C(=O)c1cc(C(=O)O)[nH]c1-2 [Comparative Example 4, Pyrroloquinoline quinone disodium]",Concentration of growth inhibition (total cell number decreases by 10%),500 µM
